Data published in patent US20130252930A1 (BIOMARIN PHARMACEUTICAL INC., priority 2010, published 2013).

These compounds were tested against T1, CYP17 (human testicular microsome) (Homo sapiens, UniProt P05093) (assay: CYP17 enzymatic assay (% inhibition at 1 nM) (Biological Example 12)). Conditions: compound at 1 nM, read-out: Biological Example No. 12: CYP17 enzymatic assay % inhibition at 1 nM.
T1 construct: using microsomal fraction from human testis (Celsis Cat #S00110) as the enzyme source; tissue Celsis S00110; host or cells: human testis microsomal fraction
T1 sequence (P05093 1-508): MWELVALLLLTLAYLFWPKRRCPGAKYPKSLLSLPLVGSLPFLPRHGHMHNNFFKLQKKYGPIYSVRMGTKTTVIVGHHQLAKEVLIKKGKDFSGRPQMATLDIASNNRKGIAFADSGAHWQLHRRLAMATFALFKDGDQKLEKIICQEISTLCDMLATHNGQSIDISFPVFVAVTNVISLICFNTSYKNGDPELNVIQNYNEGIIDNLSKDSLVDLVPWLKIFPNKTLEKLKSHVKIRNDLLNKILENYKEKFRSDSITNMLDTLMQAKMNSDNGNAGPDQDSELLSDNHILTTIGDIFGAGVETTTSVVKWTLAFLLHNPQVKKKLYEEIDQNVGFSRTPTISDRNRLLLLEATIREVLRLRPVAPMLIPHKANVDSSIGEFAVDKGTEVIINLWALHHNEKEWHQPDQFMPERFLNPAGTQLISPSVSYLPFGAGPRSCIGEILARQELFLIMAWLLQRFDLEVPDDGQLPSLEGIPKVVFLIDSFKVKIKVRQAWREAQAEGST
Assay type: biochemical

| Compound | inhibition at 0.001 µM [%] |
| --- | --- |
| CC1=C2CCC3C(CC[C@]4(C)C(c5cccnc5)=CCC34)[C@@]2(C)CC/C1=N\O (stereo partly drawn) [Compound 364, (10R,13S,E)-4,10,13-trimethyl-17-(pyridin-3-yl)-6,7,8,9,10,11,12,13,14,15-decahydro-1H-cyclopenta[a]phenanthren-3(2H)-one oxime] | 10 to 50 |
| CC1CC2C(CC[C@]3(C)C(c4cccnc4)=CCC23)[C@@]2(C)CC[C@](C)(O)CC12 (stereo partly drawn) [Compound 425, (3S,10S,13S)-3,6,10,13-tetramethyl-17-(pyridin-3-yl)-2,3,4,5,6,7,8,9,10,11,12,13,14,15-tetradecahydro-1H-cyclopenta[a]phenanthren-3-ol] | 10 to 50 |
| C[C@]12CCC3(CO3)CC1CCC1C2CC[C@]2(C)C(c3cccnc3)=CCC12 (stereo partly drawn) [Compound 475, 3-((10S,13S)-10,13-dimethyl-1,2,4,5,6,7,8,9,10,11,12,13,14,15-tetradecahydrospiro[cyclopenta[a]phenanthrene-3,2′-oxiran]-17-yl)pyridine] | 10 to 50 |
| CC(=O)NC1CC[C@@]2(C)C(CCC3C2CC[C@]2(C)C(c4cccnc4)=CCC32)C1C (stereo partly drawn) [Compound 413, N-((10R,13S)-4,10,13-trimethyl-17-(pyridin-3-yl)-2,3,4,5,6,7,8,9,10,11,12,13,14,15-tetradecahydro-1H-cyclopenta[a]phenanthren-3-yl)acetamide] | < 10 |
| CCNC(=O)NC1CC[C@@]2(C)C(CCC3C2CC[C@]2(C)C(c4cccnc4)=CCC32)C1C (stereo partly drawn) [Compound 414, 1-ethyl-3-((10R,13S)-4,10,13-trimethyl-17-(pyridin-3-yl)-2,3,4,5,6,7,8,9,10,11,12,13,14,15-tetradecahydro-1H-cyclopenta[a]phenanthren-3-yl)urea] | < 10 |
| CN1C(=O)CC[C@@]2(C)C1=CCC1C2CC[C@]2(C)C(c3cncc(C(F)F)c3)=CCC12 (stereo partly drawn) [Compound 429, (4aR,6aS)-7-(5-(difluoromethyl)pyridin-3-yl)-1,4a,6a-trimethyl-4,4a,4b,5,6,6a,9,9a,9b,10-decahydro-1H-indeno[5,4-f]quinolin-2(3H)-one] | < 10 |
| CC1CC2C(CC[C@]3(C)C(c4cccnc4)=CCC23)[C@@]2(C)CC[C@@](C)(O)CC12 (stereo partly drawn) [Compound 424, (3R,10S,13S)-3,6,10,13-tetramethyl-17-(pyridin-3-yl)-2,3,4,5,6,7,8,9,10,11,12,13,14,15-tetradecahydro-1H-cyclopenta[a]phenanthren-3-ol] | 10 to 50 |
| C[C@]12CC[C@H]3[C@@H](CC=C4C[C@@H](OC(=O)Nc5cccnc5)CC[C@@]43C)C1=CC=C2c1cccnc1 [Compound 204, (3S,10R,13S)-10,13-dimethyl-17-(pyridin-3-yl)-2,3,4,7,8,9,10,11,12,13-decahydro-1H-cyclopenta[a]phenanthren-3-yl pyridin-3-ylcarbamate] | 10 to 50 |

Same assay, conditions: compound at 1 nM, read-out: CYP17 enzymatic assay % inhibition at 1 nM (Biological Example No. 12)

| Compound | inhibition at 0.001 µM [%] |
| --- | --- |
| CNC1CC[C@@]2(C)C(CC[C@@H]3[C@@H]2CC[C@]2(C)C(c4cccnc4)=CC[C@@H]32)C1 (stereo partly drawn) [Compound 211, (10S,13S)-N,10,13-trimethyl-17-(pyridin-3-yl)-2,3,4,5,6,7,8,9,10,11,12,13,14,15-tetradecahydro-1H-cyclopenta[a]phenanthren-3-amine] | 10 to 50 |
| CC(=O)N(C)C1CC[C@@]2(C)C(CCC3C2CC[C@]2(C)C(c4cncc(C)c4)=CCC32)C1 (stereo partly drawn) [Compound 212, N-((10S,13S)-10,13-dimethyl-17-(5-methylpyridin-3-yl)-2,3,4,5,6,7,8,9,10,11,12,13,14,15-tetradecahydro-1H-cyclopenta[a]phenanthren-3-yl)-N-methylacetamide] | 10 to 50 |
| CCNC(=O)O[C@H]1CC[C@@]2(C)C(=CC[C@H]3C4=CC=C(c5cccnc5)[C@@]4(C)CC[C@@H]32)C1 [Compound 202, (3S,10R,13S)-10,13-dimethyl-17-(pyridin-3-yl)-2,3,4,7,8,9,10,11,12,13-decahydro-1H-cyclopenta[a]phenanthren-3-yl ethylcarbamate] | < 10 |
| Cc1ccncc1C1=CC=C2C3CCC4CNC(=O)CC[C@]4(C)C3CC[C@]12C (stereo partly drawn) [Compound 464, (5aR,7aS)-5a,7a-dimethyl-8-(4-methylpyridin-3-yl)-1,2,5,5a,5b,6,7,7a,10b,11,12,12a-dodecahydrocyclopenta[5,6]naphtho[2,1-c]azepin-3(4H)-one] | 10 to 50 |
| C[C@]12CC[C@@H](N=[N+]=[N-])CC1CC[C@@H]1[C@@H]2CC[C@]2(C)C(c3cccnc3)=CC[C@@H]12 (stereo partly drawn) [Compound 214b, 3-((3R,10S,13S)-3-azido-10,13-dimethyl-2,3,4,5,6,7,8,9,10,11,12,13,14,15-tetradecahydro-1H-cyclopenta[a]phenanthren-17-yl)pyridine] | 10 to 50 |
| C#C[C@@]1(O)CC[C@@]2(C)C(CCC3C2CC[C@]2(C)C(c4cccnc4)=CCC32)C1 (stereo partly drawn) [Compound 257, (3R,10S,13S)-3-ethynyl-10,13-dimethyl-17-(pyridin-3-yl)-2,3,4,5,6,7,8,9,10,11,12,13,14,15-tetradecahydro-1H-cyclopenta[a]phenanthren-3-ol] | 10 to 50 |
| CNC1CC[C@@]2(C)C(CCC3C2CC[C@]2(C)C(c4cncc(C)c4)=CCC32)C1 (stereo partly drawn) [Compound 210, (10S,13S)-N,10,13-trimethyl-17-(5-methylpyridin-3-yl)-2,3,4,5,6,7,8,9,10,11,12,13,14,15-tetradecahydro-1H-cyclopenta[a]phenanthren-3-amine] | 10 to 50 |
| CC(C)(C)c1ccccc1C(=O)O[C@H]1CC[C@@]2(C)C(=CC[C@H]3C4=CC=C(c5cccnc5)[C@@]4(C)CC[C@@H]32)C1 [Compound 201, (3S,10R,13S)-10,13-dimethyl-17-(pyridin-3-yl)-2,3,4,7,8,9,10,11,12,13-decahydro-1H-cyclopenta[a]phenanthren-3-yl 2-(tert-butyl)benzoate] | < 10 |
| CC(=O)O[C@H]1CC[C@@]2(C)C(CCC3C4=CC=C(c5cnccc5C)[C@@]4(C)CCC32)C1 (stereo partly drawn) [Compound 466, (3S,10S,13S)-10,13-dimethyl-17-(4-methylpyridin-3-yl)-2,3,4,5,6,7,8,9,10,11,12,13-dodecahydro-1H-cyclopenta[a]phenanthren-3-yl acetate] | 10 to 50 |

Same assay, conditions: test compound at 1 nM, read-out: CYP17 enzymatic assay percent inhibition at 1 nM (Biological Example No. 12)

| Compound | inhibition at 0.001 µM [%] |
| --- | --- |
| CCC(=O)O[C@H]1CC[C@@]2(C)C(=CCC3C4=CC=C(c5cccnc5)[C@@]4(C)CCC32)C1 (stereo partly drawn) [Compound 193, (3S,10R,13S)-10,13-dimethyl-17-(pyridin-3-yl)-2,3,4,7,8,9,10,11,12,13-decahydro-1H-cyclopenta[a]phenanthren-3-yl propionate] | 10 to 50 |
| C[C@]12CCC3C(CC=C4C[C@@H](OC(=O)c5ccccc5)CC[C@@]43C)C1=CC=C2c1cccnc1 (stereo partly drawn) [Compound 194, (3S,10R,13S)-10,13-dimethyl-17-(pyridin-3-yl)-2,3,4,7,8,9,10,11,12,13-decahydro-1H-cyclopenta[a]phenanthren-3-yl benzoate] | 10 to 50 |
| C[C@]1(O)CC[C@@]2(C)C(=CCC3C2CC[C@]2(C)C(c4cccnc4)=CCC32)C1 (stereo partly drawn) [Compound 268, (3S,10R,13S)-3,10,13-trimethyl-17-(pyridin-3-yl)-2,3,4,7,8,9,10,11,12,13,14,15-dodecahydro-1H-cyclopenta[a]phenanthren-3-ol] | > 50 |
